Measured values from patent publication US6326378A, “Use of thiadiazolo[4,3-a]pyridine derivatives” (Roche Diagnostics GmbH, priority 1998, dated 2001).
In brackets after ≈: the same amount, converted by molar mass.

Tests used:
[1] = cited from earlier work
guinea pigs = experiment: Toxicity / tolerability in guinea pigs; type: in vivo, guinea pig; details: p.o. and i.p.
Source text: (§1) The behaviour of the dogs was normal.

PDE IV = PDE IV inhibition, isolated human enzyme preparations; type: biochemical; details: isolated human enzyme preparation
Experimental: (§2) The IC50 values of the compound from Example 2b were determined to be 2×10^-5 mol/l (PDE IV) and 8×10^-5 mol/l (PDE III) on isolated human enzyme preparations.

Basophilic granulocytes = experiment: Basophilic granulocytes, anti-IgE antibody, proteinase release; type: cell-based; details: stimulus anti-IgE antibody
Source text: (§3) The compound from Example 2b inhibits the activation of various types of leucocytes under different stimuli.

rats = experiment: Toxicity / tolerability in rats; type: in vivo, rat
Source text: as §1

T Lymphoblasts = experiment: T Lymphoblasts, thymidine incorporation; type: cell-based; details: no stimulus
Source text: as §3

Lymphocytes [2] = experiment: Lymphocytes, ConA, thymidine incorporation; type: cell-based; details: Lymphocyte; stimulus ConA
Source text: as §3

conscious dogs (beagles) = experiment: Effect on heart rate and arterial blood pressure of conscious dogs; type: in vivo, dog; details: for DBP / MAP / SBP / HR: 24 mg/kg oral
Experimental: as §1
Effect on heart rate and on arterial blood pressure
of conscious dogs after oral administration of 24 mg/kg of the compound of […]

PDE III = PDE III inhibition, isolated human enzyme preparations; type: biochemical; details: isolated human enzyme preparation
Experimental: as §2

Lymphocytes [3] = experiment: Lymphocytes, mixed lymphocytes reaction, thymidine incorporation; type: cell-based; details: Lymphocyte; stimulus mixed lymphocytes reaction
Source text: as §3

Peripheral leucocytes = experiment: Peripheral leucocytes, LPS, secretion of TNFα; type: cell-based; details: Leucocyte; stimulus LPS
Source text: as §3

mice = experiment: Toxicity / tolerability in mice; type: in vivo, mouse; details: p.o. and i.p.
Source text: as §1

dogs = experiment: Toxicity / tolerability in dogs; type: in vivo, dog
Source text: as §1

Phagocytes (PMNs) = experiment: Phagocytes (PMNs), zymosan, chemiluminescence; type: cell-based; details: stimulus zymosan
Source text: as §3

[4] = conscious beagles, 24 mg/kg, up to 6 h after administration
[5] = conscious beagles, 24 mg/kg, observation period up to 6 h

Cn1c(=O)c2[nH]cnc2n(C)c1=O [theophylline]
side effects ([1]; at slightly increased doses): nausea, giddiness, tachycardia and tremor
therapeutic breadth ([1]; employed for therapy): small therapeutic breadth

c1ccn2c(=Nc3ccncc3)snc2c1 [Example 2b, 3-(4-Pyridinylimino)-3H-[1,2,4]thiadiazolo[4,3-a]pyridine]
tolerability (guinea pigs): well tolerated
IC50 (PDE IV): 20 µM
IC50 (Basophilic granulocytes): 10 µg/mL (≈ 43.8 µM)
side effects (behaviour, body weight, histology, haematological and clinicochemical parameters) (rats; after 2 weeks, 40 mg/kg daily): not possible to determine any side effects
tolerability (rats; p.o. and i.p.): well tolerated
IC50 (T Lymphoblasts): 6.4 µg/mL (≈ 28 µM)
IC50 (Lymphocytes [2]): 2.8 µg/mL (≈ 12.3 µM)
arterial blood pressure (conscious dogs (beagles); [4]): remained constant
heart rate (conscious dogs (beagles); [4]): remained constant
DBP (conscious dogs (beagles); edible oil + 2% DMSO, 30 min, preliminary value 66): 63 mmHg
MAP (conscious dogs (beagles); edible oil + 2% DMSO, 30 min, preliminary value 111): 113 mmHg
SBP (conscious dogs (beagles); edible oil + 2% DMSO, 30 min, preliminary value 171): 181 mmHg
DBP (conscious dogs (beagles); edible oil + 2% DMSO, 60 min, preliminary value 66): 57 mmHg
HR (conscious dogs (beagles); edible oil + 2% DMSO, 60 min, preliminary value 79): 82 beats/min
MAP (conscious dogs (beagles); edible oil + 2% DMSO, 60 min, preliminary value 111): 109 mmHg
SBP (conscious dogs (beagles); edible oil + 2% DMSO, 60 min, preliminary value 171): 178 mmHg
DBP (conscious dogs (beagles); edible oil + 2% DMSO, 90 min, preliminary value 66): 58 mmHg
HR (conscious dogs (beagles); edible oil + 2% DMSO, 90 min, preliminary value 79): 86 beats/min
MAP (conscious dogs (beagles); edible oil + 2% DMSO, 90 min, preliminary value 111): 107 mmHg
SBP (conscious dogs (beagles); edible oil + 2% DMSO, 90 min, preliminary value 171): 173 mmHg
DBP (conscious dogs (beagles); edible oil + 2% DMSO, 120 min, preliminary value 66): 60 mmHg
HR (conscious dogs (beagles); edible oil + 2% DMSO, 120 min, preliminary value 79): 82 beats/min
MAP (conscious dogs (beagles); edible oil + 2% DMSO, 120 min, preliminary value 111): 109 mmHg
SBP (conscious dogs (beagles); edible oil + 2% DMSO, 120 min, preliminary value 171): 175 mmHg
DBP (conscious dogs (beagles); edible oil + 2% DMSO, 150 min, preliminary value 66): 63 mmHg
HR (conscious dogs (beagles); edible oil + 2% DMSO, 150 min, preliminary value 79): 82 beats/min
MAP (conscious dogs (beagles); edible oil + 2% DMSO, 150 min, preliminary value 111): 113 mmHg
SBP (conscious dogs (beagles); edible oil + 2% DMSO, 150 min, preliminary value 171): 179 mmHg
DBP (conscious dogs (beagles); edible oil + 2% DMSO, 180 min, preliminary value 66): 66 mmHg
HR (conscious dogs (beagles); edible oil + 2% DMSO, 180 min, preliminary value 79): 87 beats/min
MAP (conscious dogs (beagles); edible oil + 2% DMSO, 180 min, preliminary value 111): 114 mmHg
SBP (conscious dogs (beagles); edible oil + 2% DMSO, 180 min, preliminary value 171): 179 mmHg
DBP (conscious dogs (beagles); edible oil + 2% DMSO, 210 min, preliminary value 66): 68 mmHg
HR (conscious dogs (beagles); edible oil + 2% DMSO, 210 min, preliminary value 79): 86 beats/min
MAP (conscious dogs (beagles); edible oil + 2% DMSO, 210 min, preliminary value 111): 114 mmHg
SBP (conscious dogs (beagles); edible oil + 2% DMSO, 210 min, preliminary value 171): 174 mmHg
DBP (conscious dogs (beagles); edible oil + 2% DMSO, 240 min, preliminary value 66): 64 mmHg
HR (conscious dogs (beagles); edible oil + 2% DMSO, 240 min, preliminary value 79): 93 beats/min
MAP (conscious dogs (beagles); edible oil + 2% DMSO, 240 min, preliminary value 111): 109 mmHg
SBP (conscious dogs (beagles); edible oil + 2% DMSO, 240 min, preliminary value 171): 169 mmHg
DBP (conscious dogs (beagles); edible oil + 2% DMSO, 300 min, preliminary value 66): 65 mmHg
HR (conscious dogs (beagles); edible oil + 2% DMSO, 300 min, preliminary value 79): 92 beats/min
MAP (conscious dogs (beagles); edible oil + 2% DMSO, 300 min, preliminary value 111): 110 mmHg
SBP (conscious dogs (beagles); edible oil + 2% DMSO, 300 min, preliminary value 171): 169 mmHg
DBP (conscious dogs (beagles); edible oil + 2% DMSO, 360 min, preliminary value 66): 70 mmHg
HR (conscious dogs (beagles); edible oil + 2% DMSO, 360 min, preliminary value 79): 91 beats/min
MAP (conscious dogs (beagles); edible oil + 2% DMSO, 360 min, preliminary value 111): 115 mmHg
SBP (conscious dogs (beagles); edible oil + 2% DMSO, 360 min, preliminary value 171): 174 mmHg
HR (conscious dogs (beagles); edible oil + 2% DMSO, 1 ml/kg, 30 min, preliminary value 79, average n=5): 117 beats/min
DBP (conscious dogs (beagles); methyl cellulose 1% + 2% DMSO, 30 min, preliminary value 70): 65 mmHg
MAP (conscious dogs (beagles); methyl cellulose 1% + 2% DMSO, 30 min, preliminary value 114): 114 mmHg
SBP (conscious dogs (beagles); methyl cellulose 1% + 2% DMSO, 30 min, preliminary value 172): 179 mmHg
DBP (conscious dogs (beagles); methyl cellulose 1% + 2% DMSO, 60 min, preliminary value 70): 66 mmHg
HR (conscious dogs (beagles); methyl cellulose 1% + 2% DMSO, 60 min, preliminary value 83): 79 beats/min
MAP (conscious dogs (beagles); methyl cellulose 1% + 2% DMSO, 60 min, preliminary value 114): 114 mmHg
SBP (conscious dogs (beagles); methyl cellulose 1% + 2% DMSO, 60 min, preliminary value 172): 178 mmHg
DBP (conscious dogs (beagles); methyl cellulose 1% + 2% DMSO, 90 min, preliminary value 70): 63 mmHg
HR (conscious dogs (beagles); methyl cellulose 1% + 2% DMSO, 90 min, preliminary value 83): 83 beats/min
MAP (conscious dogs (beagles); methyl cellulose 1% + 2% DMSO, 90 min, preliminary value 114): 110 mmHg
SBP (conscious dogs (beagles); methyl cellulose 1% + 2% DMSO, 90 min, preliminary value 172): 172 mmHg
DBP (conscious dogs (beagles); methyl cellulose 1% + 2% DMSO, 120 min, preliminary value 70): 64 mmHg
HR (conscious dogs (beagles); methyl cellulose 1% + 2% DMSO, 120 min, preliminary value 83): 80 beats/min
MAP (conscious dogs (beagles); methyl cellulose 1% + 2% DMSO, 120 min, preliminary value 114): 111 mmHg
SBP (conscious dogs (beagles); methyl cellulose 1% + 2% DMSO, 120 min, preliminary value 172): 173 mmHg
DBP (conscious dogs (beagles); methyl cellulose 1% + 2% DMSO, 150 min, preliminary value 70): 64 mmHg
HR (conscious dogs (beagles); methyl cellulose 1% + 2% DMSO, 150 min, preliminary value 83): 81 beats/min
MAP (conscious dogs (beagles); methyl cellulose 1% + 2% DMSO, 150 min, preliminary value 114): 112 mmHg
SBP (conscious dogs (beagles); methyl cellulose 1% + 2% DMSO, 150 min, preliminary value 172): 175 mmHg
DBP (conscious dogs (beagles); methyl cellulose 1% + 2% DMSO, 180 min, preliminary value 70): 65 mmHg
HR (conscious dogs (beagles); methyl cellulose 1% + 2% DMSO, 180 min, preliminary value 83): 76 beats/min
MAP (conscious dogs (beagles); methyl cellulose 1% + 2% DMSO, 180 min, preliminary value 114): 114 mmHg
SBP (conscious dogs (beagles); methyl cellulose 1% + 2% DMSO, 180 min, preliminary value 172): 178 mmHg
DBP (conscious dogs (beagles); methyl cellulose 1% + 2% DMSO, 210 min, preliminary value 70): 63 mmHg
HR (conscious dogs (beagles); methyl cellulose 1% + 2% DMSO, 210 min, preliminary value 83): 84 beats/min
MAP (conscious dogs (beagles); methyl cellulose 1% + 2% DMSO, 210 min, preliminary value 114): 109 mmHg
SBP (conscious dogs (beagles); methyl cellulose 1% + 2% DMSO, 210 min, preliminary value 172): 169 mmHg
DBP (conscious dogs (beagles); methyl cellulose 1% + 2% DMSO, 240 min, preliminary value 70): 62 mmHg
HR (conscious dogs (beagles); methyl cellulose 1% + 2% DMSO, 240 min, preliminary value 83): 74 beats/min
MAP (conscious dogs (beagles); methyl cellulose 1% + 2% DMSO, 240 min, preliminary value 114): 108 mmHg
SBP (conscious dogs (beagles); methyl cellulose 1% + 2% DMSO, 240 min, preliminary value 172): 167 mmHg
DBP (conscious dogs (beagles); methyl cellulose 1% + 2% DMSO, 300 min, preliminary value 70): 62 mmHg
HR (conscious dogs (beagles); methyl cellulose 1% + 2% DMSO, 300 min, preliminary value 83): 77 beats/min
MAP (conscious dogs (beagles); methyl cellulose 1% + 2% DMSO, 300 min, preliminary value 114): 108 mmHg
SBP (conscious dogs (beagles); methyl cellulose 1% + 2% DMSO, 300 min, preliminary value 172): 169 mmHg
DBP (conscious dogs (beagles); methyl cellulose 1% + 2% DMSO, 360 min, preliminary value 70): 65 mmHg
HR (conscious dogs (beagles); methyl cellulose 1% + 2% DMSO, 360 min, preliminary value 83): 75 beats/min
MAP (conscious dogs (beagles); methyl cellulose 1% + 2% DMSO, 360 min, preliminary value 114): 110 mmHg
SBP (conscious dogs (beagles); methyl cellulose 1% + 2% DMSO, 360 min, preliminary value 172): 170 mmHg
HR (conscious dogs (beagles); methyl cellulose 1% + 2% DMSO, 1 ml/kg, 30 min, preliminary value 83, average n=5): 85 beats/min
IC50 (PDE III): 80 µM
IC50 (Lymphocytes [3]): 7.6 µg/mL (≈ 33.3 µM)
IC50 (Peripheral leucocytes): < 3 µg/mL
tolerability (mice): well tolerated
behaviour of the dogs (dogs; conscious beagles, 24 mg/kg): normal
emetic action (dogs; conscious beagles, 24 mg/kg): not detectable
blood glucose (dogs; [5]): remained unchanged
triglycerides (dogs; [5]): remained unchanged
tolerability (dogs; dogs, p.o.): well tolerated
GPT (dogs; sign of liver damage, conscious beagles, 24 mg/kg, observation period up to 6 h): remained unchanged
IC50 (Phagocytes (PMNs)): 27 µg/mL (≈ 118 µM)
